Data: US12679843B2, “Pyrrolopyrimidine amines as complement inhibitors” (BioCryst Pharmaceuticals, Inc., priority 2020, dated 2026)

target: Factor D (Homo sapiens, UniProt P00746); experiment: Factor D esterolytic assay (Z-Lys-SBzl thioester substrate, DTNB, 405 nm); assay type: biochemical; conditions: substrate Z-Lys-SBzl 1.29 mM, 100 mM HEPES, 500 mM NaCl, pH 7.5, 10% DMSO, tested a minimum of three times
Procedure, shortened: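 Run in pH 7.5 HEPES (100 mM) with 500 mM NaCl and 10% DMSO, with compound preincubated at room temperature or not before adding 1.29 mM Z-Lys-SBzl. Free thiol released by Factor D reacts with DTNB, and rate is followed at 405 nm minus 690 nm over 600 s. IC50 derives from rate-based inhibition, minimum three replicates.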

Factor D, sequence (P00746 26-253): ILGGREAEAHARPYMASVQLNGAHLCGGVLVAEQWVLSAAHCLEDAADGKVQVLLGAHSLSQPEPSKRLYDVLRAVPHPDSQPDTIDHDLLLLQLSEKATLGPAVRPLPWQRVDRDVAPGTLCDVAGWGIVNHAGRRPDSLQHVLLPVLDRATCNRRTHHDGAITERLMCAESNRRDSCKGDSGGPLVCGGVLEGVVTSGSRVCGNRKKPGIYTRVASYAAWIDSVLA

Structure (SMILES)	IC50 [nM]
Cc1ccc(-c2cc(C)c3c(c2)c2c(N)ncnc2n3CC(=O)N2[C@@H]3C[C@@H]3C[C@H]2C(=O)Nc2cccc(Br)n2)cc1 [Compound 256a, (1R,3S,5R)-2-(2-(4-amino-8-methyl-6-(p-tolyl)-9H-pyrimido[4,5-b]indol-9-yl)acetyl)-N-(6-bromopyridin-2-yl)-2-azabicyclo[3.1.0]hexane-3-carboxamide]	< 100
COc1cc(C)c2c(c1)c1c(N)ncnc1n2CC(=O)N1[C@@H]2C[C@@H]2C[C@H]1C(=O)Nc1cccc(Br)n1 [Compound 257g, (1R,3S,5R)-2-(2-(4-amino-6-methoxy-8-methyl-9H-pyrimido[4,5-b]indol-9-yl)acetyl)-N-(6-bromopyridin-2-yl)-2-azabicyclo[3.1.0]hexane-3-carboxamide]	< 100
COc1cc(C)c2c(c1)c1c(N)ncnc1n2CC(=O)N1[C@H](C(=O)Nc2cccc(Br)n2)C[C@@]2(C)C[C@@H]12 [Compound 258a, (1R,3S,5R)-2-(2-(4-amino-6-methoxy-8-methyl-9H-pyrimido[4,5-b]indol-9-yl)acetyl)-N-(6-bromopyridin-2-yl)-5-methyl-2-azabicyclo[3.1.0]hexane-3-carboxamide]	< 100
Cc1cc(-c2ccncc2)cc2c3c(N)ncnc3n(CC(=O)N3[C@@H]4C[C@@H]4C[C@H]3C(=O)Nc3cccc(Br)n3)c12 [Compound 263c, (1R,3S,5R)-2-(2-(4-amino-8-methyl-6-(pyridin-4-yl)-9H-pyrimido[4,5-b]indol-9-yl)acetyl)-N-(6-bromopyridin-2-yl)-2-azabicyclo[3.1.0]hexane-3-carboxamide]	< 100
Cc1cc(-c2ccncc2)cc2c3c(N)ncnc3n(CC(=O)N3[C@H](C(=O)Nc4cccc(Br)n4)C[C@@]4(C)C[C@@H]34)c12 [Compound 264a, (1R,3S,5R)-2-(2-(4-amino-8-methyl-6-(pyridin-4-yl)-9H-pyrimido[4,5-b]indol-9-yl)acetyl)-N-(6-bromopyridin-2-yl)-5-methyl-2-azabicyclo[3.1.0]hexane-3-carboxamide]	< 100
Cc1cc(O)cc2c3c(N)ncnc3n(CC(=O)N3[C@H](C(=O)Nc4cccc(Br)n4)C[C@@]4(C)C[C@@H]34)c12 [Compound 265a, (1R,3S,5R)-2-(2-(4-amino-6-hydroxy-8-methyl-9H-pyrimido[4,5-b]indol-9-yl)acetyl)-N-(6-bromopyridin-2-yl)-5-methyl-2-azabicyclo[3.1.0]hexane-3-carboxamide]	< 100
C[C@@]12C[C@@H](C(=O)Nc3cccc(Br)n3)N(C(=O)Cn3c4ccc(-c5ccccc5)cc4c4c(N)ncnc43)[C@@H]1C2 [Compound 270a, (1R,3S,5R)-2-(2-(4-amino-6-phenyl-9H-pyrimido[4,5-b]indol-9-yl)acetyl)-N-(6-bromopyridin-2-yl)-5-methyl-2-azabicyclo[3.1.0]hexane-3-carboxamide]	< 100
Cc1cccc(-c2ccc3c(c2)c2c(N)ncnc2n3CC(=O)N2[C@@H]3C[C@@H]3C[C@H]2C(=O)Nc2cccc(Br)n2)c1 [Compound 271c, (1R,3S,5R)-2-(2-(4-amino-6-(m-tolyl)-9H-pyrimido[4,5-b]indol-9-yl)acetyl)-N-(6-bromopyridin-2-yl)-2-azabicyclo[3.1.0]hexane-3-carboxamide]	< 100
COc1cc2c3c(N)ncnc3n(CC(=O)N3[C@H](C(=O)Nc4cccc(Br)n4)C[C@@]4(C)C[C@@H]34)c2cc1OC [Compound 277a, (1R,3S,5R)-2-(2-(4-amino-6,7-dimethoxy-9H-pyrimido[4,5-b]indol-9-yl)acetyl)-N-(6-bromopyridin-2-yl)-5-methyl-2-azabicyclo[3.1.0]hexane-3-carboxamide]	< 100
COc1cc(OC)c2c(c1)c1c(N)ncnc1n2CC(=O)N1[C@@H]2C[C@@H]2C[C@H]1C(=O)Nc1cccc(Br)n1 [Compound 278g, (1R,3S,5R)-2-(2-(4-amino-6,8-dimethoxy-9H-pyrimido[4,5-b]indol-9-yl)acetyl)-N-(6-bromopyridin-2-yl)-2-azabicyclo[3.1.0]hexane-3-carboxamide]	< 100
COc1cc(OC)c2c(c1)c1c(N)ncnc1n2CC(=O)N1[C@H](C(=O)Nc2cccc(Br)n2)C[C@@]2(C)C[C@@H]12 [Compound 279a, (1R,3S,5R)-2-(2-(4-amino-6,8-dimethoxy-9H-pyrimido[4,5-b]indol-9-yl)acetyl)-N-(6-bromopyridin-2-yl)-5-methyl-2-azabicyclo[3.1.0]hexane-3-carboxamide]	< 100
COc1cc(F)cc2c3c(N)ncnc3n(CC(=O)N3[C@@H]4C[C@@H]4C[C@H]3C(=O)Nc3cccc(Br)n3)c12 [Compound 280g, (1R,3S,5R)-2-(2-(4-amino-6-fluoro-8-methoxy-9H-pyrimido[4,5-b]indol-9-yl)acetyl)-N-(6-bromopyridin-2-yl)-2-azabicyclo[3.1.0]hexane-3-carboxamide]	< 100

Next, values leading:

IC50 [nM]	Structure (SMILES)
100 to 1000	Nc1ncnc2c1c1cc(C(F)(F)F)ccc1n2CC(=O)N1[C@@H]2C[C@@H]2C[C@H]1C(=O)Nc1ccnc(Br)c1 [Compound 259d, (1R,3S,5R)-2-(2-(4-amino-6-(trifluoromethyl)-9H-pyrimido[4,5-b]indol-9-yl)acetyl)-N-(2-bromopyridin-4-yl)-2-azabicyclo[3.1.0]hexane-3-carboxamide]
< 100	Nc1ncnc2c1c1cc(C(F)(F)F)ccc1n2CC(=O)N1[C@@H]2C[C@@H]2C[C@H]1C(=O)Nc1cncc(Br)n1 [Compound 260a, (1R,3S,5R)-2-(2-(4-amino-6-(trifluoromethyl)-9H-pyrimido[4,5-b]indol-9-yl)acetyl)-N-(6-bromopyrazin-2-yl)-2-azabicyclo[3.1.0]hexane-3-carboxamide]
< 100	C[C@@]12C[C@@H](C(=O)Nc3cncc(Br)n3)N(C(=O)Cn3c4ccc(C(F)(F)F)cc4c4c(N)ncnc43)[C@@H]1C2 [Compound 261d, (1R,3S,5R)-2-(2-(4-amino-6-(trifluoromethyl)-9H-pyrimido[4,5-b]indol-9-yl)acetyl)-N-(6-bromopyrazin-2-yl)-5-methyl-2-azabicyclo[3.1.0]hexane-3-carboxamide]
< 100	CN(C)c1ccc2c(c1)c1c(N)ncnc1n2CC(=O)N1[C@@H]2C[C@@H]2C[C@H]1C(=O)Nc1cccc(Br)n1 [Compound 262a, (1R,3S,5R)-2-(2-(4-amino-6-(dimethylamino)-9H-pyrimido[4,5-b]indol-9-yl)acetyl)-N-(6-bromopyridin-2-yl)-2-azabicyclo[3.1.0]hexane-3-carboxamide]
< 100	Nc1ncnc2c1c1cc(C(F)(F)F)ccc1n2CC(=O)N1[C@@H]2C[C@@H]2C[C@H]1C(=O)Nc1cccc(Br)c1 [Compound 266b, (1R,3S,5R)-2-(2-(4-amino-6-(trifluoromethyl)-9H-pyrimido[4,5-b]indol-9-yl)acetyl)-N-(3-bromophenyl)-2-azabicyclo[3.1.0]hexane-3-carboxamide]
< 100	Nc1ncnc2c1c1cc(C(F)(F)F)ccc1n2CC(=O)N1[C@@H]2C[C@@H]2C[C@H]1C(=O)Nc1cccc(Cl)n1 [Compound 267c, (1R,3S,5R)-2-(2-(4-amino-6-(trifluoromethyl)-9H-pyrimido[4,5-b]indol-9-yl)acetyl)-N-(6-chloropyridin-2-yl)-2-azabicyclo[3.1.0]hexane-3-carboxamide]
< 100	Nc1ncnc2c1c1cc(C(F)(F)F)ccc1n2CC(=O)N1[C@@H]2C[C@@H]2C[C@H]1C(=O)Nc1cccc(Br)c1F [Compound 268b, (1R,3S,5R)-2-(2-(4-amino-6-(trifluoromethyl)-9H-pyrimido[4,5-b]indol-9-yl)acetyl)-N-(3-bromo-2-fluorophenyl)-2-azabicyclo[3.1.0]hexane-3-carboxamide]
< 100	C[C@@]12C[C@@H](C(=O)Nc3cccc(Cl)n3)N(C(=O)Cn3c4ccc(C(F)(F)F)cc4c4c(N)ncnc43)[C@@H]1C2 [Compound 269c, (1R,3S,5R)-2-(2-(4-amino-6-(trifluoromethyl)-9H-pyrimido[4,5-b]indol-9-yl)acetyl)-N-(6-chloropyridin-2-yl)-5-methyl-2-azabicyclo[3.1.0]hexane-3-carboxamide]
100 to 1000	Nc1ncnc2c1c1cc(C(F)(F)F)ccc1n2CC(=O)N1[C@@H]2C[C@@H]2C[C@H]1C(=O)Nc1ccccn1 [Compound 272c, (1R,3S,5R)-2-(2-(4-amino-6-(trifluoromethyl)-9H-pyrimido[4,5-b]indol-9-yl)acetyl)-N-(pyridin-2-yl)-2-azabicyclo[3.1.0]hexane-3-carboxamide]
< 100	Nc1ncnc2c1c1cc(-c3cccnc3)ccc1n2CC(=O)N1[C@@H]2C[C@@H]2C[C@H]1C(=O)Nc1cccc(Br)n1 [Compound 273c, (1R,3S,5R)-2-(2-(4-amino-6-(pyridin-3-yl)-9H-pyrimido[4,5-b]indol-9-yl)acetyl)-N-(6-bromopyridin-2-yl)-2-azabicyclo[3.1.0]hexane-3-carboxamide]
< 100	Nc1ncnc2c1c1cc(OC(F)(F)F)ccc1n2CC(=O)N1[C@@H]2C[C@@H]2C[C@H]1C(=O)Nc1cccc(Br)n1 [Compound 274g, (1R,3S,5R)-2-(2-(4-amino-6-(trifluoromethoxy)-9H-pyrimido[4,5-b]indol-9-yl)acetyl)-N-(6-bromopyridin-2-yl)-2-azabicyclo[3.1.0]hexane-3-carboxamide]
< 100	Nc1ncnc2c1c1cc(-c3ccoc3)ccc1n2CC(=O)N1[C@@H]2C[C@@H]2C[C@H]1C(=O)Nc1cccc(Br)n1 [Compound 275c, (1R,3S,5R)-2-(2-(4-amino-6-(furan-3-yl)-9H-pyrimido[4,5-b]indol-9-yl)acetyl)-N-(6-bromopyridin-2-yl)-2-azabicyclo[3.1.0]hexane-3-carboxamide]
< 100	COc1cc2c3c(N)ncnc3n(CC(=O)N3[C@@H]4C[C@@H]4C[C@H]3C(=O)Nc3cccc(Br)n3)c2cc1OC [Compound 276g, (1R,3S,5R)-2-(2-(4-amino-6,7-dimethoxy-9H-pyrimido[4,5-b]indol-9-yl)acetyl)-N-(6-bromopyridin-2-yl)-2-azabicyclo[3.1.0]hexane-3-carboxamide]
